From patent publication US9296711B2, “Substituted isoxazole amide compounds as inhibitors of stearoyl-CoA desaturase 1 (SCD1)” (Hoffman-La Roche Inc., priority 2012, dated 2016)

target: T1, SCD1 (Mus musculus, UniProt P13516); test: SCD assay: release of tritiated water from desaturation of 9,10-3H-stearoyl CoA by mouse liver microsomes; format: biochemical; conditions: mouse liver microsomes as SCD source; 300 nM (9,10)3H-stearoyl CoA; 25 minutes at room temperature; read-out: IC50 (in vitro inhibition of SCD1)
T1 construct: Mouse liver microsomes, prepared from mice fed a high-carbohydrate diet, were a source of the SCD; from tissue; host or cells: mouse liver microsomes (mice fed a high-carbohydrate diet)
T1 sequence (P13516 1-355): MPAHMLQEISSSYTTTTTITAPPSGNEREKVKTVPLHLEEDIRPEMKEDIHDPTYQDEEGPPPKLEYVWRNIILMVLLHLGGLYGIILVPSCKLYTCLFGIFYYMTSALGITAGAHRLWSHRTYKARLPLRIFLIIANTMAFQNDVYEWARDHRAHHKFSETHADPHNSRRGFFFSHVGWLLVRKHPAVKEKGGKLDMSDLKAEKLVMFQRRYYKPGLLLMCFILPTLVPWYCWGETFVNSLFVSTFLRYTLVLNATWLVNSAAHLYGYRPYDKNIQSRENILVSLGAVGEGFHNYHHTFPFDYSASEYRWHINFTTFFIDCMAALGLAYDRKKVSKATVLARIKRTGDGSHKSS
Description: Stearoyl CoA desaturase activity was monitored by a modification of the acyl carrier protein assay described by B. R. Talamo and K. Bloch in Anal. Biochem. 1968, 29, 300-304. The SCD assay monitors the release of tritiated water from the desaturation of 9,10-^3H-stearoyl CoA.
Mouse liver microsomes, prepared from mice fed a high-carbohydrate diet, were a source of the SCD and cyt b5 and cyt b5 reductase, necessary accessory proteins for the coupled reaction. Reaction mixtures for compound titrations contained 50 mM Tris HCl pH 7.5, 100 mM NaCl, 0.165 mg/ml BSA, 2.4% DMSO, 1 mM NADH, 0.03% T-20, and 300 nM (9,10)^3H-stearoyl CoA (Perkin-Elmer). Reactions were initiated upon the addition of 4 ug/ml SCD microsomes. Incubations were terminated after 25 minutes at room temperature with cold 6% TCA. After standing 10 minutes at 4° C., samples were centrifuged 15 minutes at 4000 rpm to pellet precipitated protein. Supernatants were added to microtiter plates containing suspensions of activated charcoal (Darco G-60, Fisher Scientific) and mixed by inversion. Plates were then centrifuged to separate ^3H—H2O product from charcoal-bound reactants. Supernatants were quantitated in a Perkin Elmer Topcount 384 after solubilization in ScintiSafe Plus 50% (Fisher Scientific).
Inhibition (%) of SCD activity by compounds was calculated according to the following formula: % Inhibition=100*[1−(CPMsample−CPMblank)/(CPMtotal−CPMblank)]

First: NC(=O)c1cc(-c2ccc(OCc3ccccc3SC(F)(F)F)cc2)no1 [Example 1, 3-[4-(2-Trifluoromethylsulfanyl-benzyloxy)-phenyl]-isoxazole-5-carboxylic acid amide]
Second: NC(=O)c1cc(-c2ccc(OCc3ccccc3C(F)(F)F)cc2)no1 [Example 21, 3-[4-(2-Trifluoromethyl-benzyloxy)-phenyl]-isoxazole-5-carboxylic acid amide]
The IC50 of the first is 2.7-fold higher: 480 nM for the first, 180 nM for the second.

Going from `NC(=O)c1cc(-c2ccc(OCc3ccccc3[S+]([O-])C(F)(F)F)cc2)no1` (stereo not drawn) [Example 2, 3-[4-(2-Trifluoromethanesulfinyl-benzyloxy)-phenyl]-isoxazole-5-carboxylic acid amide] to `NC(=O)c1cc(-c2ccc(OCc3ccccc3OC(F)(F)F)cc2)no1` [Example 10, 3-[4-(2-Trifluoromethoxy-benzyloxy)-phenyl]-isoxazole-5-carboxylic acid amide], the IC50 falls from 580 nM to 210 nM (2.8-fold). The second is the more potent here.

First: COc1ccccc1COc1ccc(-c2cc(C(N)=O)on2)cc1 [Example 3, 3-[4-(2-Methoxy-benzyloxy)-phenyl]-isoxazole-5-carboxylic acid amide]
Second: Cc1ccccc1COc1ccc(-c2cc(C(N)=O)on2)cc1 [Example 9, 3-[4-(2-Methyl-benzyloxy)-phenyl]-isoxazole-5-carboxylic acid amide]
The IC50 of the first is 1.8-fold higher: 850 nM for the first, 460 nM for the second.

`Cc1ccc(COc2ccc(-c3cc(C(N)=O)on3)cc2)cc1C` [Example 4, 3-[4-(3,4-Dimethyl-benzyloxy)-phenyl]-isoxazole-5-carboxylic acid amide] and `NC(=O)c1cc(-c2ccc(OCc3ccc(F)c(F)c3)cc2)no1` [Example 7, 3-[4-(3,4-Difluoro-benzyloxy)-phenyl]-isoxazole-5-carboxylic acid amide] are within 1.5-fold of each other in IC50: 2700 nM for the first, 2300 nM for the second.

Going from `N#Cc1ccccc1COc1ccc(-c2cc(C(N)=O)on2)cc1` [Example 5, 3-[4-(2-Cyano-benzyloxy)-phenyl]-isoxazole-5-carboxylic acid amide] to `NC(=O)c1cc(-c2ccc(OCc3ccccc3F)cc2)no1` [Example 8, 3-[4-(2-Fluoro-benzyloxy)-phenyl]-isoxazole-5-carboxylic acid amide], the IC50 falls from 970 nM to 560 nM (1.7-fold).

`NC(=O)c1cc(-c2ccc(OCc3c(Cl)cccc3Cl)cc2)no1` [Example 6, 3-[4-(2,6-Dichloro-benzyloxy)-phenyl]-isoxazole-5-carboxylic acid amide] and `NC(=O)c1cc(-c2ccc(OCc3c(F)cccc3Cl)cc2)no1` [Example 12, 3-[4-(2-Chloro-6-fluoro-benzyloxy)-phenyl]-isoxazole-5-carboxylic acid amide] are within 1.5-fold of each other in IC50: 2600 nM for the first, 3100 nM for the second.

`NC(=O)c1cc(-c2ccc(OCc3ccccc3I)cc2)no1` [Example 11, 3-[4-(2-Iodo-benzyloxy)-phenyl]-isoxazole-5-carboxylic acid amide] and `NC(=O)c1cc(-c2ccc(OCc3ccccc3Cl)cc2)no1` [Example 19, 3-[4-(2-Chloro-benzyloxy)-phenyl]-isoxazole-5-carboxylic acid amide] are within 1.5-fold of each other in IC50: 410 nM for the first, 280 nM for the second.

Going from `NC(=O)c1cc(-c2ccc(OCc3cc(F)ccc3Cl)cc2)no1` [Example 13, 3-[4-(2-Chloro-5-fluoro-benzyloxy)-phenyl]-isoxazole-5-carboxylic acid amide] to `NC(=O)c1cc(-c2ccc(OCc3cccnc3Cl)cc2)no1` [Example 15, 3-[4-(2-Chloro-pyridin-3-ylmethoxy)-phenyl]-isoxazole-5-carboxylic acid amide], the IC50 rises from 420 nM to 2400 nM (5.7-fold).

Going from `NC(=O)c1cc(-c2ccc(OCc3ccccc3Cl)cn2)no1` [Example 14, 3-[5-(2-Chloro-benzyloxy)-pyridin-2-yl]-isoxazole-5-carboxylic acid amide] to `NC(=O)c1cc(-c2ccc(OCc3ccccc3Br)cc2)no1` [Example 20, 3-[4-(2-Bromo-benzyloxy)-phenyl]-isoxazole-5-carboxylic acid amide], the IC50 falls from 1400 nM to 170 nM (8.2-fold). The second is the more potent here.

`NC(=O)c1cc(-c2ccc(OCc3cccc(C(F)(F)F)c3)cc2)no1` [Example 17, 3-[4-(3-Trifluoromethyl-benzyloxy)-phenyl]-isoxazole-5-carboxylic acid amide] and `NC(=O)c1cc(-c2ccc(OCc3cccc(Cl)c3)cc2)no1` [Example 18, 3-[4-(3-Chloro-benzyloxy)-phenyl]-isoxazole-5-carboxylic acid amide] are within 1.5-fold of each other in IC50: 1400 nM for the first, 1500 nM for the second.

First: CS(=O)(=O)c1ccccc1COc1ccc(-c2cc(C(N)=O)on2)cc1 [Example 22, 3-[4-(2-Methanesulfonyl-benzyloxy)-phenyl]-isoxazole-5-carboxylic acid amide]
Second: CCc1ccccc1OCc1ccc(-c2cc(C(N)=O)on2)cc1 [Example 34, 3-[4-(2-Ethyl-phenoxymethyl)-phenyl]-isoxazole-5-carboxylic acid amide]
The IC50 of the first is 7.1-fold higher: 1500 nM for the first, 210 nM for the second. The second is the more potent here.

Compared with `NC(=O)c1cc(-c2ccc(COc3cccc(Cl)c3)cc2)no1` [Example 24, 3-[4-(3-Chloro-phenoxymethyl)-phenyl]-isoxazole-5-carboxylic acid amide], `Cc1cccc(OCc2ccc(-c3cc(C(N)=O)on3)cc2)c1` [Example 27, 3-(4-m-Tolyloxymethyl-phenyl)-isoxazole-5-carboxylic acid amide] is 1.9-fold higher in IC50: 290 nM for the first, 560 nM for the second. The first is the more potent here.

First: NC(=O)c1cc(-c2ccc(COc3ccc(Cl)cc3)cc2)no1 [Example 25, 3-[4-(4-Chloro-phenoxymethyl)-phenyl]-isoxazole-5-carboxylic acid amide]
Second: COc1ccc(OCc2ccc(-c3cc(C(N)=O)on3)cc2)cc1 [Example 30, 3-[4-(4-Methoxy-phenoxymethyl)-phenyl]-isoxazole-5-carboxylic acid amide]
The IC50 of the first is 2.5-fold lower: 1300 nM for the first, 3300 nM for the second.

First: Cc1ccccc1OCc1ccc(-c2cc(C(N)=O)on2)cc1 [Example 26, 3-(4-o-Tolyloxymethyl-phenyl)-isoxazole-5-carboxylic acid amide]
Second: NC(=O)c1cc(-c2ccc(COc3ccccc3F)cc2)no1 [Example 39, 3-[4-(2-Fluoro-phenoxymethyl)-phenyl]-isoxazole-5-carboxylic acid amide]
The IC50 of the first is 7.7-fold lower: 66 nM for the first, 510 nM for the second.

Compared with `COc1ccccc1OCc1ccc(-c2cc(C(N)=O)on2)cc1` [Example 28, 3-[4-(2-Methoxy-phenoxymethyl)-phenyl]-isoxazole-5-carboxylic acid amide], `NC(=O)c1cc(-c2ccc(COc3ccccc3OC(F)(F)F)cc2)no1` [Example 33, 3-[4-(2-Trifluoromethoxy-phenoxymethyl)-phenyl]-isoxazole-5-carboxylic acid amide] is 2.8-fold higher in IC50: 170 nM for the first, 470 nM for the second.

First: COc1cccc(OCc2ccc(-c3cc(C(N)=O)on3)cc2)c1 [Example 29, 3-[4-(3-Methoxy-phenoxymethyl)-phenyl]-isoxazole-5-carboxylic acid amide]
Second: Cc1cccc(C)c1OCc1ccc(-c2cc(C(N)=O)on2)cc1 [Example 31, 3-[4-(2,6-Dimethyl-phenoxymethyl)-phenyl]-isoxazole-5-carboxylic acid amide]
The IC50 of the first is 5.6-fold lower: 340 nM for the first, 1900 nM for the second. The first is the more potent here.

Compared with `CC(C)c1ccccc1OCc1ccc(-c2cc(C(N)=O)on2)cc1` [Example 32, 3-[4-(2-Isopropyl-phenoxymethyl)-phenyl]-isoxazole-5-carboxylic acid amide], `CC(C)(C)c1ccccc1OCc1ccc(-c2cc(C(N)=O)on2)cc1` [Example 35, 3-[4-(2-tert-Butyl-phenoxymethyl)-phenyl]-isoxazole-5-carboxylic acid amide] is 1.7-fold higher in IC50: 380 nM for the first, 650 nM for the second.

`NC(=O)c1cc(-c2ccc(COc3ccccc3C(F)(F)F)cc2)no1` [Example 36, 3-[4-(2-Trifluoromethyl-phenoxymethyl)-phenyl]-isoxazole-5-carboxylic acid amide] and `N#Cc1ccccc1OCc1ccc(-c2cc(C(N)=O)on2)cc1` [Example 37, 3-[4-(2-Cyano-phenoxymethyl)-phenyl]-isoxazole-5-carboxylic acid amide] are within 1.5-fold of each other in IC50: 260 nM for the first, 310 nM for the second.

First: Cc1cccnc1OCc1ccc(-c2cc(C(N)=O)on2)cc1 [Example 38, 3-[4-(3-Methyl-pyridin-2-yloxymethyl)-phenyl]-isoxazole-5-carboxylic acid amide]
Second: Cc1ccc(Cl)cc1OCc1ccc(-c2cc(C(N)=O)on2)cc1 [Example 40, 3-[4-(5-Chloro-2-methyl-phenoxymethyl)-phenyl]-isoxazole-5-carboxylic acid amide]
The IC50 of the first is 2.5-fold higher: 350 nM for the first, 140 nM for the second. The second is the more potent here.

Work on `Cc1c(Cl)cccc1OCc1ccc(-c2cc(C(N)=O)on2)cc1` [Example 41, 3-[4-(3-Chloro-2-methyl-phenoxymethyl)-phenyl]-isoxazole-5-carboxylic acid amide] yielded an IC50 of 390 nM.
